According to patent publication US20090253687A1, “Fused Heterocyclic Compounds and Their Use as Mineralocorticoid Receptor Ligands” (priority 2005, published 2009):

The molecules below were run against T1, Human Mineralocorticoid Receptor (hMR) (Homo sapiens, UniProt P08235) (assay: Inhibition of binding of [3H]-aldosterone to hMR (lysate of FreeStyle 293 cells expressing hMR)). Conditions: compound at 10^−5 M; 10 nM [3H]-aldosterone; hMR lysate 1.0 mg/ml; 16 hr at 4° C.; read-out: Inhibition rate (at 10^−5 M).
T1 construct: Full-length cDNA was constructed from two fragments of hMR cDNA amplified separately; expressed in transfected cells; host or cells: FreeStyle 293 cells transiently transfected with pMCMVneo-hMR; supernatant of the freeze-thaw lysate after ultracentrifugation
T1 sequence (P08235 1-984): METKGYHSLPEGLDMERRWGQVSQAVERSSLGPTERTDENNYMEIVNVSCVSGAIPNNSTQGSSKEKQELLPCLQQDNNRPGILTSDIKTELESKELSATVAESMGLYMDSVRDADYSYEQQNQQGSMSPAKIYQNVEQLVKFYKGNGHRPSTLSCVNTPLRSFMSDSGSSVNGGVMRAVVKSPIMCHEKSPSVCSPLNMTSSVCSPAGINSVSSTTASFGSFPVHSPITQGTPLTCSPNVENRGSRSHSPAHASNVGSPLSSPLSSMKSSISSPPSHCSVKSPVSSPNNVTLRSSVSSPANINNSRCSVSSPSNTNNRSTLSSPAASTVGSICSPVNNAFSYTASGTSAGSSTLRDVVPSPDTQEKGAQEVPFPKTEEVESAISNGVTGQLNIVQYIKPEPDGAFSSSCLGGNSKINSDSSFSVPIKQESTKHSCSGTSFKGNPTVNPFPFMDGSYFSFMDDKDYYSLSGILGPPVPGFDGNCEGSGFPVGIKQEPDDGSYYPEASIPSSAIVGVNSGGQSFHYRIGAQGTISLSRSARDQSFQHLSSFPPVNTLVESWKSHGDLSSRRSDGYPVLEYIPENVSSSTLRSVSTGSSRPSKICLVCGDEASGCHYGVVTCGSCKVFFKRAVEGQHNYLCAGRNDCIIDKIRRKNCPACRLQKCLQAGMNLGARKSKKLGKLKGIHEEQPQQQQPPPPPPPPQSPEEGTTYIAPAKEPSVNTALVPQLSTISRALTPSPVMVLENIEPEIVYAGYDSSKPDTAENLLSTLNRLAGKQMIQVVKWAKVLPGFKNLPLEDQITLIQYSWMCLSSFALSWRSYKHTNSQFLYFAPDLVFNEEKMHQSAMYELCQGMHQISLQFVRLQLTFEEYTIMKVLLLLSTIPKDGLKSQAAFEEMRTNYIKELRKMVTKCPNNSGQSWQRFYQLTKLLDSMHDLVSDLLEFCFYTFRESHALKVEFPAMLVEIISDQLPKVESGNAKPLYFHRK
Procedure: The following procedures described in this Example were carried out according to the methods described in Molecular Cloning—Cold Spring Harbor Laboratory (1989) or protocols specified by manufacturers. (1) Cloning of Human Mineralocorticoid Receptor (hMR) cDNA hMR cDNA was amplified by polymerase chain reaction (PCR) from human kidney cDNA library. Full-length cDNA was constructed from two fragments of hMR cDNA amplified separately. The primers were designed referring to the nucleotide sequence of hMR cDNA reported by Arriza et. al (Science 1987; 237: 268-275). The PCR reactions were carried out using Pyrobest® DNA polymerase (Takara). The PCR products were electrophoresed in agarose gel, and 1.7 kb (region (i)) and 1.5 kb (region (ii)) DNA fragments were recovered. Each DNA fragment was inserted into pCR®4Blunt-TOPO® vector (Invitrogen). The resulting plasmids thus obtained were designated as pB-hMR (i) and pB-hMR (ii). To obtain the full-length hMR cDNA, pB-hMR (i) was digested with XhoI and PvuI, and pB-hMR (ii) was digested with PvuI and KpnI, respectively, and the two cDNA fragments were ligated into pBlueScript®IISK+ vector (Stratagene). The resulting plasmid thus obtained was designated as pB-hMR. (2) Construction of hMR Expression Plasmid pMCMVneo (described in WO03/099793) was digested with XhoI and KpnI, and 5.6 kb fragment was ligated with 2.9 kb hMR cDNA fragment obtained by digestion of pB-hMR (described in above (1)) with XhoI and KpnI. The plasmid thus obtained was designated as pMCMVneo-hMR. (3) Expression of hMR in FreeStyle 293 Cells and Preparation of Cell Lysate FreeStyle 293 cells were inoculated at 1×10^8 cells in 93 ml FreeStyle™ 293 Expression Medium (Invitrogen) in a 500 ml Erlenmeyer flask and cultured at 37° C. under 8% CO2 for 1 hr. The cells were treated with 6.7 ml of the transfection mixture containing 100 μg of pMCMVneo-hMR obtained in above (2) and 133 μl of FreeStyle™ 293 Transfection Reagent (Invitrogen). The transfected cells were cultivated for 48 hr at 37° C. in 8% CO2 atmosphere. The cultivated cells were centrifuged and washed with TEG buffer (10 mM Tris-HCl (pH 7.2), 50 mM EDTA, 10% glycerol), and resuspended in 10 ml TEGM buffer (10 mM Tris-HCl (pH 7.2), 1 mM EDTA, 10% glycerol, 1 mM β-mercaptoethanol, 10 mM sodium molybdate, 1 mM dithiothreitol, 2 tablets/100 ml of protease inhibitor cocktail tablets (Roche)). The cell suspension was frozen with liquid nitrogen and thawed on ice, and ultra-centrifuged at 225,000×g for 20 min at 4° C. The supernatant fraction including hMR (hMR lysate) was collected and stored at −80° C. (4) Measurement of Inhibition Activity Against Binding of hMR and Aldosterone [^3H]-Aldosterone (Amersham Biosciences) as ligand was added at 10 nM to the reaction mixture including test compound at various concentration and hMR lysate (1.0 mg/ml) obtained in above (3) and mixture was filled up to 50.5 μl with TEGM buffer. The reaction mixture was incubated for 16 hr at 4° C. and 35 μl of dextran/gelatin coated charcoal suspension (5% charcoal, 0.5% dextran T-70 (Amersham Biosciences), 0.1% gelatin (SIGMA), 10 mM Tris HCl (pH 7.2), 1 mM EDTA) was added thereto to separate bound and free radioactive aldosterone. The mixture containing charcoal was incubated for 10 min at 4° C. and centrifuged at 910×g for 10 min at 4° C. Radioactivity in 30 μl of the supernatant was measured by TopCount™ (Packard). For the determination of nonspecific binding, cold Aldosterone instead of drug was added to reaction mixture at 100 μM. Specific binding was determined by subtracting nonspecific binding from total binding.

inhibition at 10 µM [%] | Compound
≥ 70 | O=C1COc2ccc(C3=Nn4cnnc4SC3c3ccccc3)cc2N1 (centres unmarked) [Example 3, 6-(7-phenyl-7H-[1,2,4]triazolo[3,4-b][1,3,4]thiadiazin-6-yl)-2H-1,4-benzoxazin-3(4H)-one]
≥ 70 | O=C1COc2ccc(C3=Nn4ccnc4SC3c3ccccc3)cc2N1 (centres unmarked) [Example 5, 6-(2-Phenyl-2H-imidazo[2,1-b][1,3,4]thiadiazin-3-yl)-2H-1,4-benzoxazin-3(4H)-one]
≥ 70 | O=C1COc2ccc(C3=Nn4cc(C(F)(F)F)nc4SC3c3ccccc3)cc2N1 (centres unmarked) [Example 7, 6-[2-Phenyl-7-(trifluoromethyl)-2H-imidazo[2,1-b][1,3,4]thiadiazin-3-yl]-2H-1,4-benzoxazin-3(4H)-one]
≥ 70 | O=C1COc2ccc(C3=Nc4ccccc4SC3c3ccccc3)cc2N1 (centres unmarked) [Example 14, 6-(2-Phenyl-2H-1,4-benzothiazin-3-yl)-2H-1,4-benzoxazin-3(4H)-one]
≥ 70 | O=C1COc2ccc(C3=Nc4ccccc4OC3c3ccccc3)cc2N1 (centres unmarked) [Example 18, 2-Phenyl-2H,2′H-3,6′-bi-1,4-benzoxazin-3′(4′H)-one]
≥ 70 | O=C1COc2ccc(C3=Cc4ccccc4OC3c3ccccc3)cc2N1 (centres unmarked) [Example 19, 6-(2-Phenyl-2H-chromen-3-yl)-2H-1,4-benzoxazin-3(4H)-one]
≥ 70 | O=C1COc2ccc(C3=Cc4ccccc4SC3c3ccccc3)cc2N1 (centres unmarked) [Example 20, 6-(2-Phenyl-2H-thiochromen-3-yl)-2H-1,4-benzoxazin-3(4H)-one]
≥ 70 | NC1=NC=C(c2ccc3c(c2)NC(=O)CO3)C(c2ccccc2)S1 (centres unmarked) [Example 24, 6-(2-amino-6-phenyl-6H-1,3-thiazin-5-yl)-2H-1,4-benzoxazin-3(4H)-one]
≥ 70 | O=C1COc2ccc(C3=Cn4ccnc4SC3c3ccccc3)cc2N1 (centres unmarked) [Example 26, 6-(7-Phenyl-7H-imidazo[2,1-b][1,3]thiazin-6-yl)-2H-1,4-benzoxazin-3(4H)-one]
≥ 70 | CCCC1Sc2nncn2N=C1c1ccc2c(c1)NC(=O)CO2 (centres unmarked) [Example 31, 6-(7-Propyl-7H-[1,2,4]triazolo[3,4-b][1,3,4]thiadiazin-6-yl)-2H-1,4-benzoxazin-3(4H)-one]
≥ 70 | O=C1COc2ccc(C3=Nn4cnnc4SC3c3ccccc3Cl)cc2N1 (centres unmarked) [Example 34, 6-[7-(2-chlorophenyl)-7H-[1,2,4]triazolo[3,4-b][1,3,4]thiadiazin-6-yl]-2H-1,4-benzoxazin-3(4H)-one]
≥ 70 | O=C1COc2ccc(C3=Nn4cnnc4SC3c3ccc(F)cc3)cc2N1 (centres unmarked) [Example 35, 6-[7-(4-Fluorophenyl)-7H-[1,2,4]triazolo[3,4-b][1,3,4]thiadiazin-6-yl]-2H-1,4-benzoxazin-3(4H)-one]
≥ 70 | O=C1COc2ccc(C3=Nc4ccccc4SC3c3ccccn3)cc2N1 (centres unmarked) [Example 43, 6-(2-Pyridin-2-yl-2H-1,4-benzothiazin-3-yl)-2H-1,4-benzoxazin-3(4H)-one]
≥ 70 | O=C1COc2ccc(C3=Cc4ccccc4SC3c3ccccn3)cc2N1 (centres unmarked) [Example 44, 6-(2-Pyridin-2-yl-2H-thiochromen-3-yl)-2H-1,4-benzoxazin-3(4H)-one]
≥ 70 | O=C1COc2ccc(C3=NN(c4ccc(F)cc4)CC3c3ccccc3)cc2N1 (centres unmarked) [Example 49, 6-(1-(4-Fluorophenyl)-4-phenyl-4,5-dihydro-1H-pyrazol-3-yl)-2H-benzo[b][1,4]oxazin-3(4H)-one]
≥ 70 | O=C1COc2ccc(C3=NN(CC(F)(F)F)CC3c3ccccc3)cc2N1 (centres unmarked) [Example 53, 6-(4-Phenyl-1-(2,2,2-trifluoroethyl)-4,5-dihydro-1H-pyrazol-3-yl)-2H-benzo[b][1,4]oxazin-3(4H)-one]
≥ 70 | O=C1COc2ccc(C3=NN(C(=O)C(F)(F)F)CC3c3ccccc3)cc2N1 (centres unmarked) [Example 57, 6-(4-Phenyl-1-(2,2,2-trifluoroacetyl)-4,5-dihydro-1H-pyrazol-3-yl)-2H-benzo[b][1,4]oxazin-3(4H)-one]
≥ 70 | CS(=O)(=O)N1CC(c2ccccc2)C(c2ccc3c(c2)NC(=O)CO3)=N1 (centres unmarked) [Example 59, 6-(1-(Methylsulfonyl)-4-phenyl-4,5-dihydro-1H-pyrazol-3-yl)-2H-benzo[b][1,4]oxazin-3(4H)-one]
≥ 70 | O=C1COc2ccc(C3=C(c4ccc(F)cc4)C(=O)N(c4ccccc4)C3=O)cc2N1 [Example 65, 3-(4-fluorophenyl)-4-(3-oxo-3,4-dihydro-2H-benzo[b][1,4]oxazin-6-yl)-1-phenyl-1H-pyrrole-2,5-dione]
≥ 70 | O=C1COc2ccc(C3=C(c4ccc(F)cc4)C(=O)N(c4ccc(F)cc4)C3)cc2N1 [Example 70, 6-(1,4-Bis(4-fluorophenyl)-5-oxo-2,5-dihydro-1H-pyrrol-3-yl)-2H-benzo[b][1,4]oxazin-3(4H)-one]
≥ 70 | O=C1COc2ccc(-c3cc(C(F)(F)F)nn3-c3ccc(F)cc3)cc2N1 [Example 71, 6-(1-(4-Fluorophenyl)-3-(trifluoromethyl)-1H-pyrazol-5-yl)-2H-benzo[b][1,4]oxazin-3(4H)-one]
≥ 70 | O=C1COc2ccc(-c3cc(C(F)(F)F)nn3-c3ccc(Cl)cc3)cc2N1 [Example 74, 6-(1-(4-Chlorophenyl)-3-(trifluoromethyl)-1H-pyrazol-5-yl)-2H-benzo[b][1,4]oxazin-3(4H)-one]
≥ 70 | Cc1ccccc1-n1nc(C(F)(F)F)cc1-c1ccc2c(c1)NC(=O)CO2 [Example 82, 6-(1-o-tolyl-3-(trifluoromethyl)-1H-pyrazol-5-yl)-2H-benzo[b][1,4]oxazin-3(4H)-one]
